Measured values as given in paper PMC3879368, “Characterisation of a Multi-ligand Binding Chemoreceptor CcmL (Tlp3) of Campylobacter jejuni” (PLoS Pathogens, 2014).
pKd: −log10 of the molar value. Values joined by “and” are separate entries in the source; they are usually repeats but may differ in a detail not shown here. Identical values can stand only once. “Also recorded” adds a separate entry of the source. Like-named read-outs stand apart in the source and are kept apart here.

Columns and labels:
[1] = tested on: recombinant Tlp3 periplasmic sensory domain peptide; test: 96-well plate binding assay; parameters: species or system Campylobacter jejuni; key: Y: positive binding significantly above background; N: binding not significantly above background; settings: non-covalent presentation
Procedure: (§1) The array assay presents the compounds covalently bound to an epoxide group resulting in a high probability of a single molecular orientation. The plate assay relies on non-covalent charge and hydrophobic/hydrophilic interactions for presentation of the molecules offering a different presentation to the array.
(§2) Amino acid and small molecule arrays and plate based binding assays were performed as previously described.. […] SPR experiments were performed using a Biacore T100 biosensor system (GE- healthcare) at 25°C in 1× PBS pH 7.2 at a flow rate of 30 µl/min. […] Amino acids were prepared in 1 × PBS pH 7.2 and serially diluted from 0.0125 to 0.2 mM. The amino acids were loaded to the sensor chip using single-cycle kinetics, i.e. after the injection of five amino acid dilutions the chip was regenerated with EDTA. Subsequently, the chip was re-loaded with Ni^2+ and His-Tlp3 before the injection of the next amino acid to be tested. A 10 min dissociation time was allowed after the addition of each analyte. SPR signals were analyzed using the Biacore Evaluation software to determine KD.

His-Tlp3 = His-Tlp3 (Campylobacter jejuni, UniProt Q0P864); test: biochemical; type: binding; settings: for SPR interaction with Tlp3 (in words): two-fold serial dilution between 12.5 and 200 µM
His-Tlp3, sequence (Q0P864 entry or part of it): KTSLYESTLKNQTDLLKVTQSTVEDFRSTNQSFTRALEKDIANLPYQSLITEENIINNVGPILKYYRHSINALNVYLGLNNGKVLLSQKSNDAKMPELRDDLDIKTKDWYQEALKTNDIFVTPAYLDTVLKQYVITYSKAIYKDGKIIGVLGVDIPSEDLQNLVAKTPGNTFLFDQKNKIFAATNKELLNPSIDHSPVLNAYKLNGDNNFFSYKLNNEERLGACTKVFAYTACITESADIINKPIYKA
Procedure: as §2
All interactions present were tested with a two-fold serial dilution between 12.5 and 200 µM. (TIF) Click here for additional data file.

C. jejuni 11168-O = type: cell-based, Campylobacter jejuni; settings: for Chemotactic response: nutrient depleted chemotaxis assay, 11168-O vs Δtlp3
C. jejuni 11168-O Δtlp3 = type: cell-based, Campylobacter jejuni; settings: for Reduction in bacterial numbers migrating towards ligand, Δtlp3 compared to wild type: attractants; for Viable counts of C. jejuni associated with ligand plug: Δtlp3, plug with 2 mM ligand, 37°C, 4 h; for Increase in bacterial numbers around ligand plug, Δtlp3 compared to wild type: repellents
[2] = tested on: recombinant Cj1564 (Tlp3) periplasmic sensory domain peptide; test: 1H STD-NMR analysis, single ligand and competition; type: binding, Campylobacter jejuni; settings: for STD-NMR binding to Tlp3 (in words): ligand alone with Tlp3; for Binding preference in competition STD experiments: two ligands together with Tlp3
Procedure: Recombinant Tlp3 (1 mg/mL, 100 µL) dissolved in D2O (99.99% D Cambridge Isotopes) containing 50 mM NaCl and 50 mM KH2PO4 and added to various ligands (1 mg/mL, 150 µL ∼150 mole equivalents) also dissolved in D2O (99.99% D Cambridge Isotopes) containing 50 mM NaCl and 50 mM KH2PO4 to give a total volume of 250 µL in a 3 mm NMR tube for NMR analysis. Control samples were prepared in an identical manner without Tlp3 added. All NMR experiments were performed on a Bruker Avance 600 MHz spectrometer, equipped with a 5-mm TXI probe with triple axis gradients at 283 K without sample spinning. ^1H NMR spectra were acquired with 32 scans, a 2 s relaxation delay over a spectral width of 6000 Hz. Solvent suppression of the residual HDO peak was achieved by continuous low-power presaturation pulse during the relaxation delay. […] A 100 µs delay between each soft pulse was applied, resulting in a total saturation time of 2 s and 2 K scans.
Data were obtained with an interspersed acquisition of pseudo-two-dimensional on-resonance and off-resonance spectra in order to minimize the effects of temperature and magnet instability. On- and off-resonance spectra were processed separately, and the final STD-NMR spectrum was obtained by subtracting the individual on- and off-resonance spectra, resulting in less subtraction artefacts. Relative STD effects were calculated according to the equation ASTD = (I0−Isat)/I0 = ISTD/I0 by comparing the intensity of the signals in the STD-NMR spectrum (ISTD) with signal intensities of a reference spectrum (I0). The STD signal with the highest intensity was set to 100% and other STD signals were calculated accordingly. A spin lock field of 10 ms was applied to remove unwanted background protein signals. […] Control STD-NMR experiments were performed using an identical experimental setup and the same ligand concentration but in the absence of the protein.

[3] = tested on: recombinant Tlp3 periplasmic sensory domain peptide; test: Amino acid and small molecule array binding assay; parameters: species or system Campylobacter jejuni; key: Y: positive binding significantly above background; N: binding not significantly above background; settings: compounds covalently bound to an epoxide group
Procedure: as §1, §2

[4] = wild type 11168-O, plug with 2 mM ligand, 37°C, 4 h
[5] = Binding Affinity (KD), SPR, 25°C, 1× PBS pH 7.2
For Chemotactic response in this document: key: +: positive response (chemoattractant); −: negative response (chemorepellent).

Structure (SMILES) | Plate assay [1] | Chemotactic response (C. jejuni 11168-O) | Viable counts of C. jejuni associated with ligand plug (C. jejuni 11168-O; [4]) | Reduction in bacterial numbers migrating towards ligand, Δtlp3 compared to wild type (C. jejuni 11168-O Δtlp3) [log] | Viable counts of C. jejuni associated with ligand plug (C. jejuni 11168-O Δtlp3) | STD-NMR binding to Tlp3 (in words) ([2]; 283 K) | Array binding [3] | Increase in bacterial numbers around ligand plug, Δtlp3 compared to wild type (C. jejuni 11168-O Δtlp3) [log] | pKd (His-Tlp3; [5]) | further results
O=C(O)CC(O)C(=O)O (stereo not shown) [Malic Acid] | Y | + | 9 × 10^5 cfu/ml | 2 | 1.13 × 10^3 cfu/ml | No signals were detected |  |  |  | Dissociation rate from Tlp3 (in words) (His-Tlp3; SPR): slow disassociation rates
N=C(N)NCCC[C@H](N)C(=O)O [Arginine] | Y | − | 1.3 × 10^6 cfu/ml |  | 6.8 × 10^7 cfu/ml | Binding was observed | N | 1 |  | Binding preference in competition STD experiments [2]: preferential binding of arginine over lysine
O=C(O)CCC(=O)C(=O)O [α-ketoglutarate] | Y |  |  |  |  |  | Y |  |  | pKd (His-Tlp3; SPR, 25°C, 1× PBS pH 7.2, read-out: Binding Affinity (KD)): 3.53; Chemotaxis assay outcome (in words) (C. jejuni 11168-O; data not shown): not definitive
O=C(O)/C=C/C(=O)O [Fumaric Acid] | Y | + | 4.14 × 10^6 cfu/ml | 4 | 9 × 10^2 cfu/ml |  |  |  |  | pKd (His-Tlp3): < 2.00
N[C@@H](CC(=O)O)C(=O)O [Aspartate] | Y | + | 7.8 × 10^6 cfu/ml | 3 | 3.7 × 10^3 cfu/ml |  | N |  |  | 
CC[C@H](C)[C@H](N)C(=O)O [Isoleucine] | Y | + | 6 × 10^6 cfu/ml | 4 | 3.6 × 10^2 cfu/ml | Binding was observed | Y |  |  | Binding preference in competition STD experiments [2]: binds preferentially over arginine; also recorded: binds preferentially over lysine
NCCCC[C@H](N)C(=O)O [Lysine] | Y | − | 2.2 × 10^3 cfu/ml |  | 2.4 × 10^5 cfu/ml | Binding was observed | N | 2 | ~5.55 and 5.55 | Binding affinity of lysine relative to arginine, fold stronger (His-Tlp3; ratio of SPR KD values): ~14 fold
N[C@H]1C(O)O[C@H](CO)[C@@H](O)[C@@H]1O (stereo partly shown) [Glucosamine] | Y | − | 1.68 × 10^3 cfu/ml |  | 7.8 × 10^6 cfu/ml | No signals were detected |  | 3 | 5.11 | Dissociation rate from Tlp3 (in words) (His-Tlp3; SPR): slow disassociation rates
Cc1ncc(C[n+]2csc(CCO)c2C)c(N)n1 [Thiamine] | Y | − |  |  | 9 × 10^6 cfu/ml |  |  | 1 | > 4.30 | Viable counts of C. jejuni associated with ligand plug (C. jejuni 11168-O): 4 × 10^5 cfu/ml
c1ncc2nc[nH]c2n1 [Purine] | Y | + | 1.4 × 10^6 cfu/ml | 1 | 1.08 × 10^5 cfu/ml | Binding was observed |  |  | 4.42 | STD effect of H2 protons, fold lesser than H6 ([2]; pyrimidine ring protons, 283 K): ~5 fold; Binding preference in competition STD experiments [2]: binds preferentially over lysine; also recorded: binds preferentially over arginine
C[C@H](N)C(=O)O [alanine] |  |  |  |  |  |  |  |  |  | SPR interaction with Tlp3 (in words) (His-Tlp3): No interaction observed
NC(=O)C[C@H](N)C(=O)O [asparagine] |  |  |  |  |  |  |  |  |  | SPR interaction with Tlp3 (in words) (His-Tlp3): No interaction observed
O=C(O)CCC(=O)O [Succinic Acid] | Y | − |  |  | 2 × 10^7 cfu/ml |  |  | 1 | 4.48 | Viable counts of C. jejuni associated with ligand plug (C. jejuni 11168-O): 1.5 × 10^6 cfu/ml
